The results in this text go back to US20230143604A1, “QW DOSING OF GIP RECEPTOR AGONIST PEPTIDE COMPOUNDS AND USES THEREOF” (TAKEDA PHARMACEUTICAL COMPANY LIMITED, priority 2020, published 2023).

Starred links: 1 amine or outer side, 2 acyl side, 3 side chain; linkers in the order of their positions; H or OH if unused. Non-standard residues stand in square brackets, D forms with d. Residues, ends and D or L forms follow the SMILES beside them. Groups on a side chain read outwards from the residue. *: point of attachment. C20 diacid = O=C(O)CCCCCCCCCCCCCCCCCCC(=O)*; C18 diacid = O=C(O)CCCCCCCCCCCCCCCCC(=O)*; C17 diacid = O=C(O)CCCCCCCCCCCCCCCC(=O)*; γGlu = O=C(O)[C@H](CCC(=O)[*:2])N[*:1]; NMeY = CN[C@@H](Cc1ccc(O)cc1)C(=O)O; AEEA = NCCOCCOCC(=O)O; Aib = CC(C)(N)C(=O)O A value given as a limit tells only on which side of the number the result lay.

This data set can be described thus: Solubility in phosphate buffer pH 7.4. A digest of the protocol:
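3 mg of peptide treated with 100 μL portions of 200 mM phosphate buffer pH 7.4, sonicating/vortexing up to 1 min, with further buffer added until fully dissolved. Solubility then quantified by HPLC.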

The mark [1] stands for this setting: pH 7.4, solubility in phosphate buffer at pH 7.4, 200 mM phosphate buffer pH 7.4.
[2] abbreviates: pH 7.4, aqueous buffer, pH 7.4 Phosphate Buffer - Solubility, 200 mM Phosphate buffer pH 7.4.

Consider `CC[C@H](C)[C@H](NC(=O)[C@H](CO)NC(=O)[C@H](Cc1ccc(O)cc1)NC(=O)[C@H](CC(=O)O)NC(=O)[C@H](CO)NC(=O)[C@@H](NC(=O)[C@H](Cc1ccccc1)NC(=O)[C@@H](NC(=O)CNC(=O)[C@H](CCC(=O)O)NC(=O)C(C)(C)NC(=O)[C@H](Cc1ccc(O)cc1)NC)[C@@H](C)O)[C@@H](C)CC)C(=O)N[C@@H](C)C(=O)N[C@@H](CC(C)C)C(=O)N[C@@H](CC(=O)O)C(=O)N[C@@H](CCCNC(=N)N)C(=O)NC(C)(C)C(=O)N[C@@H](CCCCNC(=O)COCCOCCNC(=O)COCCOCCNC(=O)CC[C@H](NC(=O)CC[C@H](NC(=O)CCCCCCCCCCCCCCCCCCC(=O)O)C(=O)O)C(=O)O)C(=O)N[C@@H](CCC(N)=O)C(=O)NC(C)(C)C(=O)N[C@@H](CC(N)=O)C(=O)N[C@@H](Cc1ccccc1)C(=O)N[C@H](C(=O)N[C@@H](CC(N)=O)C(=O)N[C@@H](Cc1c[nH]c2ccccc12)C(=O)N[C@@H](CC(C)C)C(=O)N[C@@H](CC(C)C)C(=O)N[C@@H](C)C(=O)N[C@@H](CCC(N)=O)C(=O)N[C@@H](CO)C(=O)N1CCC[C@H]1C(=O)N[C@@H](CO)C(=O)N[C@@H](CO)C(=O)NCC(=O)N[C@@H](C)C(=O)N1CCC[C@H]1C(=O)N1CCC[C@H]1C(=O)N1CCC[C@H]1C(=O)N[C@@H](CO)C(N)=O)C(C)C` [Compound 68] (H-[NMeY][Aib]EGTFISDYSIALDR[Aib]K([AEEA-AEEA-γGlu-γGlu-C20 diacid])Q[Aib]NFVNWLLAQSPSSGAPPPS-NH2), for which the solubility under setting [1] is not below 15 mg/mL.

As for `CC[C@H](C)[C@H](NC(=O)[C@H](Cc1ccccc1)NC(=O)[C@@H](NC(=O)CNC(=O)[C@H](CCC(=O)O)NC(=O)C(C)(C)NC(=O)[C@H](Cc1ccc(O)cc1)NC)[C@@H](C)O)C(=O)N[C@@H](CO)C(=O)N[C@@H](CC(=O)O)C(=O)N[C@@H](Cc1ccc(O)cc1)C(=O)N[C@@H](CO)C(=O)N[C@H](C(=O)NC(C)(C)C(=O)N[C@@H](CC(C)C)C(=O)N[C@@H](CC(=O)O)C(=O)N[C@@H](CCCNC(=N)N)C(=O)NC(C)(C)C(=O)N[C@@H](C)C(=O)N[C@@H](CCC(N)=O)C(=O)NC(C)(C)C(=O)N[C@@H](CCCCNC(=O)COCCOCCNC(=O)COCCOCCNC(=O)CC[C@H](NC(=O)CC[C@H](NC(=O)CCCCCCCCCCCCCCCCCCC(=O)O)C(=O)O)C(=O)O)C(=O)N[C@@H](Cc1ccccc1)C(=O)N[C@H](C(=O)N[C@@H](CC(N)=O)C(=O)N[C@@H](Cc1c[nH]c2ccccc12)C(=O)N[C@@H](CC(C)C)C(=O)N[C@@H](CC(C)C)C(=O)N[C@@H](C)C(=O)N[C@@H](CCC(N)=O)C(=O)N[C@@H](CCCNC(=N)N)C(=O)NCC(=O)O)C(C)C)[C@@H](C)CC` [Compound 159] (H-[NMeY][Aib]EGTFISDYSI[Aib]LDR[Aib]AQ[Aib]K([AEEA-AEEA-γGlu-γGlu-C20 diacid])FVNWLLAQRG-OH), the solubility runs as follows: (pH 7.4) not below 15 mg/mL; (pH 7.4, aqueous buffer) not below 30 mg/mL.

As for `CC[C@H](C)[C@H](NC(=O)[C@H](CO)NC(=O)[C@H](Cc1ccc(O)cc1)NC(=O)[C@H](CC(=O)O)NC(=O)[C@H](CO)NC(=O)[C@@H](NC(=O)[C@H](Cc1ccccc1)NC(=O)[C@@H](NC(=O)CNC(=O)[C@H](CCC(=O)O)NC(=O)C(C)(C)NC(=O)[C@H](Cc1ccc(O)cc1)NC)[C@@H](C)O)[C@@H](C)CC)C(=O)N[C@@H](C)C(=O)N[C@@H](CCCCNC(=O)CNC(=O)CNC(=O)CNC(=O)CNC(=O)CNC(=O)CCCCCCCCCCCCCCCCC(=O)O)C(=O)N[C@@H](CC(=O)O)C(=O)N[C@@H](CCCNC(=N)N)C(=O)NC(C)(C)C(=O)N[C@@H](C)C(=O)N[C@@H](CCC(N)=O)C(=O)NC(C)(C)C(=O)N[C@@H](CC(N)=O)C(=O)N[C@@H](Cc1ccccc1)C(=O)N[C@H](C(=O)N[C@@H](CC(N)=O)C(=O)N[C@@H](Cc1c[nH]c2ccccc12)C(=O)N[C@@H](CC(C)C)C(=O)N[C@@H](CC(C)C)C(=O)N[C@@H](C)C(=O)N[C@@H](CCC(N)=O)C(=O)N[C@@H](CO)C(=O)N1CCC[C@H]1C(=O)N[C@@H](CO)C(=O)N[C@@H](CO)C(=O)NCC(=O)N[C@@H](C)C(=O)N1CCC[C@H]1C(=O)N1CCC[C@H]1C(=O)N1CCC[C@H]1C(=O)N[C@@H](CO)C(N)=O)C(C)C` [Compound 273], the solubility under setting [2] was not below 6 mg/mL.

With `CC[C@H](C)[C@H](NC(=O)[C@H](CO)NC(=O)[C@H](Cc1ccc(O)cc1)NC(=O)[C@H](CC(=O)O)NC(=O)[C@H](CO)NC(=O)[C@@H](NC(=O)[C@H](Cc1ccccc1)NC(=O)[C@@H](NC(=O)CNC(=O)[C@H](CCC(=O)O)NC(=O)C(C)(C)NC(=O)[C@H](Cc1ccc(O)cc1)NC)[C@@H](C)O)[C@@H](C)CC)C(=O)N[C@@H](C)C(=O)N[C@@H](CC(C)C)C(=O)N[C@@H](CC(=O)O)C(=O)N[C@@H](CCCNC(=N)N)C(=O)N[C@@H](C)C(=O)N[C@@H](C)C(=O)N[C@@H](CCC(N)=O)C(=O)N[C@@H](CCC(N)=O)C(=O)N[C@@H](CCCCNC(=O)COCCOCCNC(=O)COCCOCCNC(=O)CC[C@H](NC(=O)CC[C@H](NC(=O)CCCCCCCCCCCCCCCCC(=O)O)C(=O)O)C(=O)O)C(=O)N[C@@H](Cc1ccccc1)C(=O)N[C@H](C(=O)N[C@@H](CC(N)=O)C(=O)N[C@@H](Cc1c[nH]c2ccccc12)C(=O)N[C@@H](CC(C)C)C(=O)N[C@@H](CC(C)C)C(=O)N[C@@H](C)C(=O)N[C@@H](CCC(N)=O)C(=O)N[C@@H](CO)C(=O)N1CCC[C@H]1C(=O)NCC(=O)O)C(C)C` [Compound 178] (H-[NMeY][Aib]EGTFISDYSIALDRAAQQK([AEEA-AEEA-γGlu-γGlu-C18 diacid])FVNWLLAQSPG-OH), the solubility was not below 15 mg/mL (pH 7.4) and not below 30 mg/mL (pH 7.4, aqueous buffer).

`CC[C@H](C)[C@H](NC(=O)[C@H](CCCCN)NC(=O)[C@H](CC(=O)O)NC(=O)[C@H](CC(C)C)NC(=O)[C@H](C)NC(=O)[C@@H](NC(=O)[C@H](CO)NC(=O)[C@H](Cc1ccc(O)cc1)NC(=O)[C@H](CC(=O)O)NC(=O)[C@H](CO)NC(=O)[C@@H](NC(=O)[C@H](Cc1ccccc1)NC(=O)[C@@H](NC(=O)CNC(=O)[C@H](CCC(=O)O)NC(=O)C(C)(C)NC(=O)[C@@H](N)Cc1ccc(O)cc1)[C@@H](C)O)[C@@H](C)CC)[C@@H](C)CC)C(=O)N[C@@H](C)C(=O)N[C@@H](CCC(N)=O)C(=O)N[C@@H](CCCNC(=N)N)C(=O)N[C@@H](CCCCNC(=O)COCCOCCNC(=O)COCCOCCNC(=O)CC[C@H](NC(=O)CC[C@H](NC(=O)CCCCCCCCCCCCCCCC(=O)O)C(=O)O)C(=O)O)C(=O)N[C@@H](Cc1ccccc1)C(=O)N[C@H](C(=O)N[C@@H](CCC(=O)O)C(=O)N[C@@H](Cc1c[nH]c2ccccc12)C(=O)N[C@@H](CC(C)C)C(=O)N[C@@H](CC(C)C)C(=O)N[C@@H](C)C(=O)N[C@@H](CCC(N)=O)C(=O)N[C@@H](CCCNC(=N)N)C(=O)N1CCC[C@H]1C(=O)N[C@@H](CO)C(=O)N[C@@H](CO)C(=O)NCC(=O)N[C@@H](C)C(=O)N1CCC[C@H]1C(=O)N1CCC[C@H]1C(=O)N1CCC[C@H]1C(=O)N[C@@H](CO)C(=O)O)C(C)C` [Compound 135] (H-Y[Aib]EGTFISDYSIALDKIAQRK([AEEA-AEEA-γGlu-γGlu-C17 diacid])FVEWLLAQRPSSGAPPPS-OH): the solubility is, setting by setting: under setting [2], not below 30 mg/mL; under setting [1], not below 15 mg/mL.

What is called solubility is the dissolved amount per volume that the medium holds. The low end stands for a poorly soluble substance, the high end for a readily soluble substance.
